The source of these data is publication PMC13171625, “Breaking the ‘rule-of-five’ to access bridged bicyclic heteroaromatic bioisosteres” (Nature Synthesis, 2026).

The structures appear in SMILES notation. Where two headings read alike, the source gives them in different places.

For series [1] the following is noted: reference substances used to obtain the regression equation; cited from earlier work.
The next series is described as follows: physchem. The conditions noted are these: pH 7.4.
A short description of another series: in vitro. The conditions noted are these: human, microsomes.
For series [2] the following is noted: human, microsomes.
A short description of series [3]: Metabolic stability in human liver microsomes. The conditions noted are these: for microsomal CLint at 1 μM / CLint scaled at 1 μM / half-life at 1 μM / remaining at 5 min, 1 μM / remaining at 0.5 h, 1 μM / remaining at 0.75 h, 1 μM: human; for Remaining (T60): 60 min; for Remaining (NCF60): 1 h incubation, human liver microsomes, no co-factor (no NADPH). For orientation: Liver microsomes are a subcellular fraction often used to study metabolism.

Series [4] can be described thus: LogP Assay (HPLC retention, pH 7.4). Particulars: X-Bridge C18 column (retention-time method).
[5] abbreviates: human liver microsomes with NADPH.

Regarding `CC(=O)c1ccncc1` [4-Acetylpyridine], the “Log P of reference substance” value in series [1] is listed as 0.5.
As usually defined, the chromatographic logP is lipophilicity estimated from chromatographic retention. Usually CLint scaled stands for the rate of metabolic loss divided by the concentration. As a reminder, the half-life is the time needed for the level to fall by half in the phase considered. Low values mean fast loss, high ones slow loss. For orientation: share remaining means the share of the starting amount still present when the sample was taken. A low value points to a greater loss. For orientation: microsomal CLint means the rate of metabolic loss divided by the concentration. Lower therefore signals slow turnover. For `COc1ccc(S(=O)(=O)N2C3CN(C(=O)OCc4ccccc4)CC2(C(=O)NO)C3)cc1` (stereo not shown) [compound 68], the chromatographic logP in the series “physchem” amounted to 0.946. In “in vitro”, this molecule showed a CLint scaled at 1 μM of 34.3 mL/min/kg; a half-life at 1 μM of 36.3 min; a share remaining at 5 min, 1 μM of 71.3%; a fraction remaining at 0.5 h, 1 μM of 45.9%. This molecule also had a fraction remaining at 0.75 h, 1 μM in “in vitro” of 36.6%. For the same molecule, in series [2] (1 μM), the “metabolic stability compared with DB04232” value is “at least as metabolically stable as DB04232”. In addition, in series [2] (1 h, 1 μM), the “Remaining (NCF60)” value was 86.9% and the “Remaining (T60)” value is listed as 28.3%. Further, the microsomal CLint at 1 μM in series [3] (microsomes) was determined as 38.1 µL/min/mg.
In the case of `CCc1ccccc1` [Ethylbenzene], in series [1], the “Log P of reference substance” value is given as 3.2.
For the molecule `O=C(O)Cc1ccccc1Nc1c(Cl)cccc1Cl` [Diclofenac], the “%Remaining” value in series [3] (15 min, human liver microsomes with NADPH) was found to be 15.6%. The “Remaining (T60)” value in series [3] (setting [5]) is 0.1%. Further, the “Remaining (NCF60)” value in series [3] is listed as 96.1%. The “CLint(mic) (microsome intrinsic clearance)” value in series [3] (human liver microsomes 0.5 mg/mL, 1 μM compound, NADPH) worked out at 232.5 µL/min/mg. Moreover, in series [3] (liver microsomes), the CLint scaled at 1 μM amounted to 209 mL/min/kg; the half-life at 1 μM is 6 min; the fraction remaining at 5 min, 1 μM amounted to 49.4%; the share remaining at 0.5 h, 1 μM was found to be 2.6%. The molecule also registered an amount remaining at 0.75 h, 1 μM in series [3] (liver microsomes) of 0.5%.
`C[C@]12CC[C@H]3[C@@H](CCC4=CC(=O)CC[C@@]43C)[C@@H]1CC[C@@H]2O` [Testosterone]: the “CLint(liver) (hepatic intrinsic clearance)” value in series [2] is on record as […]. For the same molecule, in series [3] (setting [5]), the “Remaining (T60)” value was […]. Further, the “Remaining (NCF60)” value in series [3] was […]. In series [3] (microsomes), this molecule yielded an amount remaining at 5 min, 1 μM of […].
In series [4], `COc1ccc(S(=O)(=O)N2CCN(C(=O)OCc3ccccc3)CC2C(=O)NO)cc1` (stereo not shown) [DB04232] gave a chromatographic logP of 1.43. Further, the “Remaining (T60)” value in series [3] (setting [5]) is recorded as 30.6%. Further, the “Remaining (NCF60)” value in series [3] was 110.2%. In series [3] (liver microsomes), this molecule came in with a CLint scaled at 1 μM of 34.6 mL/min/kg; a half-life at 1 μM of 36 min; a microsomal CLint at 1 μM of 38.5 µL/min/mg; an amount remaining at 5 min, 1 μM of 82%. For the same molecule, in series [3] (liver microsomes), the share remaining at 0.5 h, 1 μM was found to be 59.3% and the fraction remaining at 0.75 h, 1 μM turned out to be 38.5%.
